Data: US20240398738A1, “MANIPULATION OF THE RETINOIC ACID SIGNALING PATHWAY” (THE REGENTS OF THE UNIVERSITY OF CALIFORNIA, priority 2017, published 2024)
“Also recorded” adds a separate entry of the source.

How the values were obtained:
RGCs in WT retina = assay: MEA recording of photoswitch (QAQ, BENAQ) photosensitization in WT retina; assay type: in vivo, mouse; conditions: WT retina, 3-7 days after intravitreal injection
Protocol: (§1) Intravitreal Injections. Before injection, mice were anesthetized with isoflurane (2%) and their pupils were dilated with tropicamide (1%) and phenylephrine (2.5%). Proparacaine (0.5%) was used as a topical analgesic. Genteal was applied under a glass coverslip to keep the cornea lubricated. An incision was made through the sclera below the ora serrata with a 30G needle and ˜1 μl of solution was injected into the vitreous with a blunt-ended 33G Hamilton syringe. After injection, the antibiotic tobramycin (0.3%) was applied to the eye. Final drug concentrations after intravitreal injection were: all-trans retinoic acid (ATRA, 100 nM), liarozole (100 μM), diethylaminobenzaldehyde (DEAB, 20 μM), citral (50 μM), BMS-493 (500 nM), and retinaldehyde (1 μM). The above values correspond to the final concentration in the eye after injecting 1 μl of drug accounting for a 5-fold dilution. An injection of PBS including 1% DMSO was used as vehicle control.
(§2) Multi Electrode Array Recordings. For extracellular recordings, a flat-mounted retina was placed ganglion cell layer down onto a 60-electrode Multi-Electrode Array (MEA 1060-2-BC, Multi-Channel Systems). After mounting the retina, photoswitches were applied for 30 min, followed by a 15 min wash. BENAQ was applied at a concentration of 100 μM and QAQ at 300 μM. A solution containing a mixture of neurotransmitter receptor blockers isolated RGCs from synaptic inputs: (in μM) 10 AP4, 40 DNQX, 30 AP5, 10 SR-95531, 50 TPMPA, 10 strychnine, and 50 tubocurarine. Extracellular spikes were high-pass filtered at 200 Hz and digitized at 20 kHz and were counted when exceeding 4 SD from the mean background voltage signal. Typically, each electrode recorded spikes from one to three individual RGCs. Principal component analysis of the spike waveforms was used for sorting spikes generated by individual cells (Offline Sorter, Plexon). Stimulation light was generated from a mercury arc lamp. Unfiltered broad spectrum light was used for BENAQ-treated retinas. Narrow band optical filters (Chroma) were used to deliver alternating intervals of 380 nm and 500 nm for stimulation of QAQ-treated as described previously (5,12). The Photoswitch Index (5) (PI) was established for individual retinas in light/darkness for treatment with BENAQ or in 380 nm/500 nm light for treatment with QAQ (11,12).
Injections. Intravitreal injections: Adult mice and rats were intravitreally injected with drugs or viruses. Before injection, animals were anesthetized with isoflurane (2%) and their pupils were dilated with tropicamide (1%) and phenylephrine (2.5%). Proparacaine (0.5%) was used as a topical analgesic. Genteal was applied under a glass coverslip to keep the cornea lubricated. An incision was made through the sclera below the ora serrata with a 30G needle. Solutions were injected into the vitreous with a blunt-ended 33G Hamilton syringe. After injection, the antibiotic tobramycin (0.3%) was applied to the eye. Final drug concentrations (after 5-fold dilution in the vitreous) were: 100 nM all-trans retinoic acid (ATRA), 100 μM liarozole (24), 20 μM diethylaminobenzaldehyde (DEAB) (28,93), 50 μM citral, 500 nM BMS 493 (85), 1 μM retinaldehyde, and vehicle comprising of 1× phosphate buffered saline (PBS) containing 1% dimethyl sulfoxide (DMSO). Intravitreal injections were performed using AAV2 serotype only. WT and rd1 mice were injected with the RAR-reporter virus or the RARDN virus, at age 1-1.5 month-old. WT and s334ter rats were injected with the RAR-reporter virus at age 3-4 month-old. Final volume of injections was 1-1.5 μL for mice and 5 μL for rats.
Multi Electrode Array Recordings. Flat-mounted retina was placed ganglion cell layer down onto a 60-electrode Multi-Electrode Array (MEA 1060-2-BC, Multi-Channel Systems). After mounting the retina was left to dark adapt for 20 minutes under constant perfusion with oxygenated saline at 34° C. 300 μM QAQ at was applied for 30 min, followed by a 5 min wash. […]

RAR = RAR dual fluorescent reporter (RARE-SV40-GFP / CMV-RFP) in HEK293 cells; assay type: cell-based, human
RGCs in rd1 retina = assay: MEA recording of RGC spontaneous activity in darkness, rd1 retina; assay type: in vivo, mouse
Protocol: as §1
Multi Electrode Array Recordings. For extracellular recordings, a flat-mounted retina was placed ganglion cell layer down onto a 60-electrode Multi-Electrode Array (MEA 1060-2-BC, Multi-Channel Systems). […] Extracellular spikes were high-pass filtered at 200 Hz and digitized at 20 kHz and were counted when exceeding 4 SD from the mean background voltage signal. Typically, each electrode recorded spikes from one to three individual RGCs. […]

RGCs in rd10 retina = assay: MEA recording of light-flash responses in partially degenerated rd10 retina; assay type: in vivo, mouse
Protocol: as §1, §2
Data Analysis and Statistics. Unless otherwise stated, all statistical significance (p-value) calculations were performed using the two-tailed unpaired Student's t test. Results with p<0.05 were considered significant. P-values are: *<0.05, **<0.01, ***<0.001. Pairwise comparisons for non-parametric data employed the Wilcoxon Rank Sum Test or the Mann-Whitney U-test. In the case where ANOVA was employed, bootstrapping was used to account for unequal group sizes and a Tukey HSD test was employed as a post-hoc test to define which comparisons and interactions produced statistically significant changes. A modified Thompson-Tau method was employed for the detection of outliers. Non-normal data distributions were analyzed using the Kruskal-Wallis ANOVA with a Dunn's post hoc test. Sigmoidal curves were fit using OriginPro™ and the output curves for vehicle and BMS-493 are y=START+(END−START)*x^n/(k^n+x^n).
Injections. Intravitreal injections: Adult mice and rats were intravitreally injected with drugs or viruses. Before injection, animals were anesthetized with isoflurane (2%) and their pupils were dilated with tropicamide (1%) and phenylephrine (2.5%). Proparacaine (0.5%) was used as a topical analgesic. Genteal was applied under a glass coverslip to keep the cornea lubricated. An incision was made through the sclera below the ora serrata with a 30G needle. Solutions were injected into the vitreous with a blunt-ended 33G Hamilton syringe. After injection, the antibiotic tobramycin (0.3%) was applied to the eye. […]

Compound	QAQ photosensitization of WT retina, in words (RGCs in WT retina)	Photoswitch Index (PI) with QAQ (RGCs in WT retina; QAQ 300 μM, mean±SEM)	GFP expression of the RAR reporter (RAR; HEK293, ATRA 1 μM, 48 hrs)	increase in GFP to RFP ratio (RAR; HEK293, different doses and times of ATRA, with 100 μM liarozole)	spontaneous firing of rd1 RGCs (mean Firing Rate) (RGCs in rd1 retina; rd1, 3-7 days after a single intravitreal injection of BMS-493, control 5.13±0.74 Hz) [Hz]	spontaneous firing rates versus controls, in words (RGCs in rd1 retina; rd1 retina, BMS-493 0.5 μM 3-7 days before, or AAV2-RARDN injected at P30, recorded at P90)	I50, midpoint of the intensity vs. response curve (RGCs in rd10 retina; 6-week-old rd10, 3-7 days after intravitreal injection, vehicle eye 1.73 μW) [μW]	Max, peak response (ratio of firing rate in the light:dark) (RGCs in rd10 retina; 6-week-old rd10, 3-7 days after intravitreal injection, vehicle eye 3.68)	RGC response to a flash of dim light, in words (RGCs in rd10 retina; rd10, 50 ms flash, 0.2 μW, vehicle-treated retinas showed no response)	background (spontaneous) firing in darkness, in words (RGCs in rd10 retina; rd10, BMS-493-injected eye)	response threshold (light intensity) (RGCs in rd10 retina; rd10, BMS-493-injected eye, vehicle-injected 0.85 μW) [μW]	light response compared between drug-injected and vehicle-injected eye of each animal, in words (RGCs in rd10 retina; rd10, n=5, paired)	shift of the intensity-response curve, in words (RGCs in rd10 retina; rd10, range of light intensities, versus vehicle)
CC1=C(/C=C/C(C)=C/C=C/C(C)=C/C(=O)O)C(C)(C)CCC1 [ATRA, all-trans retinoic acid]	Neither ATRA nor liarozole alone enabled significant QAQ photosensitization	0.1±0.05	significant increase in GFP expression only following ATRA treatment; also recorded: induced GFP expression	dose- and time-dependent									
CC1(C)CC=C(C#Cc2ccccc2)c2cc(/C=C/c3ccc(C(=O)O)cc3)ccc21 [BMS-493]					2.67±0.33	significantly lower	0.35	4.77	shows a response in BMS-493 injected animals but not vehicle injected mice; also recorded: transient increase in RGC firing in response to a brief flash (50 ms) of dim light	reduced spontaneous activity; also recorded: decrease in the background firing rate in darkness	0.2	significantly increased light response in every subject; also recorded: observed in all 5 animals tested; also recorded: enhanced the light response in all mice tested	leftward and upward shift of fitted sigmoidal curves; also recorded: increase in sensitivity and peak response to light
